Measurements reported in PMC8728392, “Synthesis, Anticancer Assessment, and Molecular Docking of Novel Chalcone-Thienopyrimidine Derivatives in HepG2 and MCF-7 Cell Lines” (Oxidative Medicine and Cellular Longevity, 2021).

Legend:
[1] = tested on: human breast cancer cell line (MCF-7); test: MTT assay, cytotoxicity; assay type: cell-based; details: for survival percentage (mean ± SEM): MCF-7, 24 hours
Procedure, shortened: (§1)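 Cells were seeded at 5×10^4/well in DMEM and allowed to attach for 24 h, then exposed to compounds in DMSO for 24 h, in triplicate wells. MTT added for 4 h, then OD read at […]. Survival is expressed as % of DMSO control, and IC50 is taken from survival-versus-concentration plots.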

[2] = tested on: human liver cancer cell line (HepG2); test: MTT assay, cytotoxicity; assay type: cell-based; details: for survival percentage (mean ± SEM): HepG2, 24 hours
Procedure, shortened: as §1

[3] = tested on: MDA in MCF-7 cells; test: Lipid peroxidation (MDA); assay type: cell-based, human; details: IC50, in comparison to untreated cells
Description: MDA is described as a lipid peroxidation product. It reacts with thiobarbituric acid to produce a red substance that is absorbed at 535 nm.
MDA has been described as the product of lipid peroxidation that reacts with thiobarbituric acid to produce a red substance that is absorbed at 535 nm (Kei et al., 1978). HepG2 and MCF7 cells treated with synthetic thienopyrimidine were mixed with 2 ml of solution of trichloroacetic acid (TCA), thiobarbituric acid (TBA) and hydrochloric acid (HCl) and mixed thoroughly, and then heated in a boiling water bath. during 15 minutes. After cooling, the precipitate was removed by centrifugation at 3000 rpm for 10 minutes. Relative to the reagent blank, which measures the absorbance at 535 nm, the blank reagent contains all reagents except cells. The MDA concentration is expressed as nmol/ml using a calibration curve.

[4] = tested on: Bax, Bcl-2, caspase-3, and caspase-9 in HepG2; test: RT-PCR relative expression of apoptosis markers; assay type: cell-based, human; details: IC50, 8-hour incubation, vs control

SMILES	survival percentage (mean ± SEM) ([1]; 4.8828125 μg/ml) [%]	survival percentage (mean ± SEM) ([1]; 9.765625 μg/ml) [%]	survival percentage (mean ± SEM) ([1]; 19.53125 μg/ml) [%]	survival percentage (mean ± SEM) ([1]; 39.0625 μg/ml) [%]	survival percentage (mean ± SEM) ([1]; 78.125 μg/ml) [%]	survival percentage (mean ± SEM) ([1]; 156.25 μg/ml) [%]	survival percentage (mean ± SEM) ([1]; 312.5 μg/ml) [%]	survival percentage (mean ± SEM) ([1]; 625 μg/ml) [%]	survival percentage (mean ± SEM) ([1]; 1250 μg/ml) [%]	survival percentage (mean ± SEM) ([1]; 2500 μg/ml) [%]	survival percentage (mean ± SEM) ([1]; 5000 μg/ml) [%]	survival percentage (mean ± SEM) ([1]; 10000 μg/ml) [%]	fold more effective anticancer activity than 5-FU ([1]; MCF-7 cell line) [fold]	survival percentage (mean ± SEM) ([2]; 4.8828125 μg/ml) [%]	survival percentage (mean ± SEM) ([2]; 9.765625 μg/ml) [%]	survival percentage (mean ± SEM) ([2]; 19.53125 μg/ml) [%]	survival percentage (mean ± SEM) ([2]; 39.0625 μg/ml) [%]	survival percentage (mean ± SEM) ([2]; 78.125 μg/ml) [%]	survival percentage (mean ± SEM) ([2]; 156.25 μg/ml) [%]	survival percentage (mean ± SEM) ([2]; 312.5 μg/ml) [%]	further results
CCOC(=O)Cn1c(SCC(=O)Nc2ccc(C(=O)/C=C\c3cc(OC)c(OC)c(OC)c3)cc2)nc2sc3c(c2c1=O)CCN(C(=O)OCC)C3 [Compound 3b, Ethyl (Z)-3-(2-Ethoxy-2-oxoethyl)-4-oxo-2-((2-oxo-2-((4-(3-(3,4,5 trimethoxyphenyl)acryloyl)phenyl)amino)ethyl)thio)-3,5,6,8 tetra-hydropyrido[4′,3′:4,5]thieno[2,3-d]pyrimidine-7(4H)-carboxylate]	104.9 ± 0.016	102.6 ± 0.015	83.2 ± 0.022	31.8 ± 0.009	27.7 ± 0.026	21.3 ± 0.013	21.0 ± 0.001	20.3 ± 0.002	20.3 ± 0.001	20.1 ± 0.001	19.7 ± 0.002	17.3 ± 0.001	846.5	110.1 ± 0.046	67.9 ± 0.048	23.2 ± 0.012	18.4 ± 0.006	17.3 ± 0.007	16.2 ± 0.004	13.3 ± 0.004	times more activity compared to compound 3g ([1]; MCF-7 cell line): ~ 2.5 times; survival percentage (mean ± SEM) ([2]; 625 μg/ml): 12.9 ± 0.006%; survival percentage (mean ± SEM) ([2]; 1250 μg/ml): 12.7 ± 0.002%; survival percentage (mean ± SEM) ([2]; 2500 μg/ml): 12.2 ± 0.001%; survival percentage (mean ± SEM) ([2]; 5000 μg/ml): 12.1 ± 0.001%; survival percentage (mean ± SEM) ([2]; 10000 μg/ml): 12.1 ± 0.002%; times more activity compared to compounds 3a and 3c ([2]; HepG2 cell line): ~ 18 times; MDA [3]: significant elevation
CCOC(=O)Cn1c(SCC(=O)Nc2ccc(C(=O)/C=C\c3cccc([N+](=O)[O-])c3)cc2)nc2sc3c(c2c1=O)CC(C)(C)NC3(C)C [Compound 3g, Ethyl (Z)-2-(6,6,8,8-Tetramethyl-2-((2-((4-(3-(3-nitrophenyl)acryloyl)-phenyl)amino)-2-oxoethyl)thio)-4-oxo-5,6,7,8-tetrahydropyrido[4′,3′:4,5]thieno[2,3-d]pyrimidin-3(4H)-yl)acetate]	105.3 ± 0.032	98.2 ± 0.023	96.4 ± 0.003	81.0 ± 0.009	28.0 ± 0.015	20.1 ± 0.003	19.4 ± 0.004	19.9 ± 0.001	19.9 ± 0.002	19.0 ± 0.001	18.9 ± 0.001	15.3 ± 0.000	350.4	131.3 ± 0.033	115.9 ± 0.098	97.8 ± 0.053	64.1 ± 0.038	17.5 ± 0.002	14.5 ± 0.003	14.1 ± 0.002	survival percentage (mean ± SEM) ([2]; 625 μg/ml): 13.0 ± 0.003%; survival percentage (mean ± SEM) ([2]; 1250 μg/ml): 12.5 ± 0.001%; survival percentage (mean ± SEM) ([2]; 2500 μg/ml): 12.7 ± 0.002%; survival percentage (mean ± SEM) ([2]; 5000 μg/ml): 12.5 ± 0.001%; survival percentage (mean ± SEM) ([2]; 10000 μg/ml): 12.3 ± 0.002%; fold more potent activity than 5-FU ([2]; HepG2 cell line): 420.94 fold; expression levels of Bcl-2 [4]: noticeably decreased; MDA [3]: significant elevation
